Laboratory results from patent US10239887B2, “Positive allosteric modulators of the muscarinic acetylcholine receptor M4” (Vanderbilt University, priority 2016, dated 2019).
Structures can show the parent of a compound that is named as a salt.

Target: T1, human mAChR M4 (Homo sapiens, UniProt P08173)
T1 sequence (P08173 1-479): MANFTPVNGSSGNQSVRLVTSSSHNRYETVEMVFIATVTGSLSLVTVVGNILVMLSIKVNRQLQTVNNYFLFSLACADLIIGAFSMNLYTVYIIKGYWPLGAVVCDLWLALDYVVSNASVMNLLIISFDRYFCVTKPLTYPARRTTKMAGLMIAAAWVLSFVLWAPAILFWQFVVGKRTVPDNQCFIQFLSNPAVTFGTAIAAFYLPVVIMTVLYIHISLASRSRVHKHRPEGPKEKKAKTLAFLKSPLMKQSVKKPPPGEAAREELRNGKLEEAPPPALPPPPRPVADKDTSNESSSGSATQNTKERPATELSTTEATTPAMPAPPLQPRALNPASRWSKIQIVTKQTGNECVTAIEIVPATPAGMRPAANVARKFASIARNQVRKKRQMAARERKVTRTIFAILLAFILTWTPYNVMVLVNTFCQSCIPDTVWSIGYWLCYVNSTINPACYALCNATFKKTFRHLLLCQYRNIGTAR
Test: mAChR M4 cell-based functional assay (calcium flux), human M4
Conditions: Table 11; for EC50: Human M4 EC50 (nM), calcium flux, PAM activity with EC20 acetylcholine; for Emax: % ACh maximum at 30 μM

EC50 | Emax | SMILES
116 nM | 80.2% | Cc1nnc2sc3c(N4CC[C@@H](Oc5ccnc(C(F)(F)F)c5)C4)ncnc3c2c1C [Compound 337, 3,4-dimethyl-8-[(3R)-3-[[2-(trifluoromethyl)-4-pyridyl]oxy]pyrrolidin-1-yl]pyrimido[4′,5′:4,5] thieno[2,3-c]pyridazine]
73.4 nM | 74.6% | Cc1cc(O[C@@H]2CCN(c3ncnc4c3sc3nnc(C)c(C)c34)C2)ccn1 [Compound 338, 3,4-dimethyl-8-[(3R)-3-[(2-methyl-4-pyridyl)oxy]pyrrolidin-1-yl] pyrimido[4′,5′:4,5] thieno[2,3-c]pyridazine]
4900 nM | 50.9% | Cc1nnc2sc3c(NC4CC(O)(c5ccc(F)cc5)C4)ncnc3c2c1C (stereo not drawn) [Compound 339, 3-[(3,4-dimethylpyrimido [4′,5′:4,5]thieno[2,3-c]pyridazin-8-yl)amino]-1-(4-fluorophenyl) cyclobutanol]
101 nM | 72.9% | Cc1nnc2sc3c(N4CC[C@@H](Oc5cccnc5)C4)ncnc3c2c1C [Compound 340, 3,4-dimethyl-8-[(3R)-3-(3-pyridyloxy)pyrrolidin-1-yl]pyrimido[4′,5′:4,5] thieno[2,3-c]pyridazine]
1290 nM | 81.2% | Cc1nnc2sc3c(NCc4ccc(-c5cccn5C)cc4)ncnc3c2c1C [Compound 341, 3,4-dimethyl-N-[[4-(1-methylpyrrol-2-yl)phenyl]methyl]pyrimido[4′,5′:4,5] thieno[2,3-c]pyridazin-8-amine]
1100 nM | 81.5% | Cc1cnn(C)c1-c1ccc(CNc2ncnc3c2sc2nnc(C)c(C)c23)cc1 [Compound 342, N-[[4-(2,4-dimethylpyrazol-3-yl)phenyl]methyl]-3,4-dimethyl-pyrimido[4′,5′:4,5] thieno[2,3-c]pyridazin-8-amine]
850 nM | 72.2% | CCn1nccc1-c1ccc(CNc2ncnc3c2sc2nnc(C)c(C)c23)cc1 [Compound 343, N-[[4-(2-ethylpyrazol-3-yl)phenyl]methyl]-3,4-dimethyl-pyrimido [4′,5′:4,5]thieno[2,3-c] pyridazin-8-amine]
824 nM | 70.9% | Cc1nnc2sc3c(NCc4ccc(-c5ccnn5C)cc4F)ncnc3c2c1C [Compound 344, N-[[2-fluoro-4-(2-methylpyrazol-3-yl)phenyl]methyl]-3,4-dimethyl-pyrimido[4′,5′:4,5]thieno [2,3-c]pyridazin-8-amine]
830 nM | 87.1% | Cc1nnc2sc3c(NCc4ccc(-n5cccn5)cc4)ncnc3c2c1C [Compound 345, 3,4-dimethyl-N-[(4-pyrazol-1-ylphenyl)methyl] pyrimido[4′,5′:4,5]thieno [2,3-c]pyridazin-8-amine]
749 nM | 56.8% | Cc1nnc2sc3c(N4CCC(Oc5ccnc(Cl)c5)CC4)ncnc3c2c1C [Compound 346, 8-[4-[(2-chloro-4-pyridyl)oxy]-1-piperidyl]-3,4-dimethyl-pyrimido [4′,5′:4,5]thieno[2,3-c] pyridazine]
362 nM | 48.5% | Cc1nnc2sc3c(N4CCC(COc5ccnc(Cl)c5)C4)ncnc3c2c1C (stereo not drawn) [Compound 347, 8-[3-[(2-chloro-4-pyridyl)oxymethyl]pyrrolidin-1-yl]-3,4-dimethyl-pyrimido[4′,5′:4,5] thieno[2,3-c]pyridazine dihydrochloride]
1710 nM | 65.7% | Cc1nnc2sc3c(N4CC(COc5ccnc(Cl)c5)C4)ncnc3c2c1C [Compound 348, 8-[3-[(2-choro-4-pyridyl)oxymethyl]azetidin-1-yl]-3,4-dimethyl-pyrimido [4′,5′:4,5]thieno[2,3-c] pyridazine dihydrochloride]
210 nM | 81.2% | Cc1nnc2sc3c(N4CC(Oc5ccnc(Cl)c5)C4)ncnc3c2c1C [Compound 349, 8-[3-[(2-chloro-4-pyridyl)oxy]azetidin-1-yl]-3,4-dimethyl-pyrimido[4′,5′:4,5] thieno[2,3-c]pyridazine dihydrochloride]
404 nM | 78.1% | Cc1nnc2sc3c(N4CC(Oc5cnccn5)C4)ncnc3c2c1C [Compound 350, 3,4-dimethyl-8-(3-pyrazin-2-yloxyazetidin-1-yl) pyrimido[4′,5′:4,5]thieno [2,3-c]pyridazine dihydrochloride]
444 nM | 62.1% | Cc1cc(C)c(OC2CN(c3ncnc4c3sc3nnc(C)c(C)c34)C2)cn1 [Compound 351, 8-[3-[(4,6-dimethyl-3-pyridyl)oxy]azetidin-1-yl]-3,4-dimethyl-pyrimido[4′,5′:4,5]thieno [2,3-c]pyridazine dihydrochloride]
– | 103% | [2H]C([2H])([2H])C(O)(c1ccc(CNc2ncnc3c2sc2nnc(C)c(C)c23)cc1)C([2H])([2H])[2H] [Compound 352, 1,1,1,3,3,3-hexadeuterio-2-[4-[[(3,4-dimethylpyrimido [4′,5′:4,5]thieno[2,3-c]pyridazin-8-yl)amino]methyl]phenyl]propan-2-ol]
321 nM | 48.8% | Cc1nnc2sc3c(N4CC[C@@H](C(C)(C)O)C4)ncnc3c2c1C [Compound 353, 2-[(3R)-1-(3,4-dimethylpyrimido [4′,5′:4,5]thieno[2,3-c]pyridazin-8-yl)pyrrolidin-3-yl]propan-2-ol]
362 nM | 53% | Cc1nnc2sc3c(N4CC[C@H](C(C)(C)O)C4)ncnc3c2c1C [Compound 354, 2-[(3S)-1-(3,4-dimethylpyrimido[4′,5′:4,5]thieno[2,3-c]pyridazin-8-yl)pyrrolidin-3-yl]propan-2-ol]
1310 nM | 49.2% | Cc1nnc2sc3c(N4CC(Oc5ccc(C#N)nc5)C4)ncnc3c2c1C [Compound 355, 5-[1-(3,4-dimethylpyrimido[4′,5′:4,5]thieno[2,3-c]pyridazin-8-yl)azetidin-3-yl]oxypyridine-2-carbonitrile dihydrochloride]
1170 nM | 32.8% | Cc1nnc2sc3c(N4CC(Oc5cccnc5)C4)ncnc3c2c1C [Compound 356, 3,4-dimethyl-8-[3-(3-pyridyloxy)azetidin-1-yl]pyrimido[4′,5′:4,5]thieno [2,3-c]pyridazine dihydrochloride]
1400 nM | 41.3% | Cc1nnc2sc3c(N4CC(Oc5cnn(C)c5)C4)ncnc3c2c1C [Compound 357, 3,4-dimethyl-8-[3-(1-methylpyrazol-4-yl)oxyazetidin-1-yl]pyrimido [4′,5′:4,5]thieno[2,3-c] pyridazine dihydrochloride]
276 nM | 76% | Cc1cc(O[C@H]2CN(c3ncnc4c3sc3nnc(C)c(C)c34)C[C@@H]2C)ccn1 [Compound 358, 3,4-dimethyl-8-[(3S,4R)-3-methyl-4-[(2-methyl-4-pyridyl)oxy]pyrrolidin-1-yl]pyrimido[4′,5′:4,5] thieno[2,3-c] pyridazine dihydrochloride]
488 nM | 31.8% | Cc1nnc2sc3c(N4CC[C@H](Oc5ccccn5)C4)ncnc3c2c1C [Compound 359, 3,4-dimethyl-8-[(3S)-3-(2-pyridyloxy)pyrrolidin-1-yl]pyrimido[4′,5′:4,5]thieno[2,3-c]pyridazine dihydrochloride]
333 nM | 56% | Cc1nnc2sc3c(N4CC[C@H](Oc5ccc(C(F)(F)F)cn5)C4)ncnc3c2c1C [Compound 360, 3,4-dimethyl-8-[(3S)-3-[[5-(trifluoromethyl)-2-pyridyl]oxy]pyrrolidin-1-yl] pyrimido[4′,5′:4,5]thieno [2,3-c]pyridazine dihydrochloride]
1470 nM | 53.9% | Cc1nnc2sc3c(N4CC[C@H](Oc5cnccn5)C4)ncnc3c2c1C [Compound 361, 3,4-dimethyl-8-[(3S)-3-pyrazin-2-yloxypyrrolidin-1-yl]pyrimido[4′,5′:4,5] thieno[2,3-c]pyridazine dihydrochloride]
519 nM | 75.7% | Cc1nnc2sc3c(N4CC[C@H](Oc5ccc(C(F)(F)F)nc5)C4)ncnc3c2c1C [Compound 362, 3,4-dimethyl-8-[(3S)-3-[[6-(trifluoromethyl)-3-pyridyl]oxy]pyrrolidin-1-yl] pyrimido[4′,5′:4,5]thieno [2,3-c]pyridazine dihydrochloride]
298 nM | 64.8% | Cc1nnc2sc3c(N4CC[C@H](Oc5ccc(C#N)cc5)C4)ncnc3c2c1C [Compound 363, 4-[(3S)-1-(3,4-dimethylpyrimido[4′,5′:4,5]thieno[2,3-c]pyridazin-8-yl)pyrrolidin-3-yl] oxybenzonitrile dihydrochloride]
423 nM | 50.7% | Cc1ccc(O[C@H]2CCN(c3ncnc4c3sc3nnc(C)c(C)c34)C2)cn1 [Compound 364, 3,4-dimethyl-8-[(3S)-3-[(6-methyl-3-pyridyl)oxy]pyrrolidin-1-yl]pyrimido [4′,5′:4,5]thieno[2,3-c] pyridazine dihydrochloride]
551 nM | 65.2% | Cc1cc(O[C@H]2C[C@@H](C)N(c3ncnc4c3sc3nnc(C)c(C)c34)C2)ccn1 [Compound 365, 3,4-dimethyl-8-[(2R,4S)-2-methyl-4-[(2-methyl-4-pyridyl)oxy]pyrrolidin-1-yl]pyrimido [4′,5′:4,5]thieno[2,3-c] pyridazine dihydrochloride]
